Data taken from US10479795B2 (Incyte Corporation, priority 2016, dated 2019).
Where a name gives a salt, the structure may show the parent alone.

What was measured:
[1] = test system: Phosphorylated Ribosomal Protein S6 (RPS6); assay: THP-1 RPS6 ELISA Assay; assay type: cell-based, Human; conditions: Homo sapiens; THP-1 cells; read-out: PI3Kγ_THP1_RPS6_ELISA IC50
Method in brief: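 Serum-starved THP-1 cells were preincubated with a concentration range of compound for 2 h at 37 °C, then stimulated with 10 nM MCP-1 for 15 min. Phospho-RPS6 in lysates was quantified by ELISA at 450 nm. IC50 came from percent inhibition versus log inhibitor concentration.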

[2] = biological target: PI3Kγ (p110γ) Recombinant Human Protein (Homo sapiens (Human), UniProt P48736); assay: PI3K-γ Scintillation Proximity Assay; assay type: biochemical; conditions: read-out: PI3Kγ IC50
Chain of PI3Kγ (p110γ) Recombinant Human Protein (P48736 whole entry): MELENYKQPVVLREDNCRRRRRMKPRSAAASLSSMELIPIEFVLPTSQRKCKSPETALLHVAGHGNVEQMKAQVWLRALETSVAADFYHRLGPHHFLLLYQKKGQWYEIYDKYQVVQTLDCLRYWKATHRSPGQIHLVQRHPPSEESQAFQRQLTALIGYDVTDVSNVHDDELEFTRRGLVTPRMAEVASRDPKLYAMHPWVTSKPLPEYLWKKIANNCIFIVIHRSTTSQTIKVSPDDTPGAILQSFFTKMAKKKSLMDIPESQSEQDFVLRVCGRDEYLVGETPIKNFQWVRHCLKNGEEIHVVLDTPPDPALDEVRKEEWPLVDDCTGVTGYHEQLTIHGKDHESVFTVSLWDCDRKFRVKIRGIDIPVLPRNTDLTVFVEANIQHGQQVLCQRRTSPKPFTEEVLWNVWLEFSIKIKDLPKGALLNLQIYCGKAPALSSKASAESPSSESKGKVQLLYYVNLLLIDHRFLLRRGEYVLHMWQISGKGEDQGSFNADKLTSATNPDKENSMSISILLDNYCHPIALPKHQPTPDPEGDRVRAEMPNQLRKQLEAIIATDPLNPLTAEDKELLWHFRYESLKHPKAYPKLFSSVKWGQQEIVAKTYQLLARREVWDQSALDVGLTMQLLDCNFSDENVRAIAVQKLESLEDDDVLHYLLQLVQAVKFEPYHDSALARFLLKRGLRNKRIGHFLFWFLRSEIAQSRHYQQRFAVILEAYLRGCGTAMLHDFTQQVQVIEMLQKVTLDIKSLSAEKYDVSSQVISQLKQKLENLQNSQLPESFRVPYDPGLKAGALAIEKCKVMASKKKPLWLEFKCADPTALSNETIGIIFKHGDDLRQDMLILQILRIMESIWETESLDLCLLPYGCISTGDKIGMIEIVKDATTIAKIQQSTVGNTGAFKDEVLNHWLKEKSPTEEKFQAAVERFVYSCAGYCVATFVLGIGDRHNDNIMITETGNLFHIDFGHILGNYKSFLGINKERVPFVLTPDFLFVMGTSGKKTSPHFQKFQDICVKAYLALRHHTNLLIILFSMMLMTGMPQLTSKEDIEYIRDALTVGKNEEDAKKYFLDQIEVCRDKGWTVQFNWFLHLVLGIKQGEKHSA
Method in brief: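 Recombinant human p110γ assayed at room temperature in 20 mM MOPS pH 6.7, 10 mM MgCl2, 5 mM DTT, 0.03% CHAPS, 2% DMSO, with 20 μM PIP2 and 2 μM ATP plus [γ-33P]ATP. Product captured on WGA SPA beads overnight and counted; IC50 fitted from % of solvent-control activity versus log inhibitor concentration.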

[3] = biological target: PI3Kδ (p110δ/p85α) Recombinant Human Protein (Homo sapiens (Human), UniProt O00329); assay: PI3Kδ Scintillation Proximity Assay; assay type: biochemical
Chain of PI3Kδ (p110δ/p85α) Recombinant Human Protein (O00329 whole entry): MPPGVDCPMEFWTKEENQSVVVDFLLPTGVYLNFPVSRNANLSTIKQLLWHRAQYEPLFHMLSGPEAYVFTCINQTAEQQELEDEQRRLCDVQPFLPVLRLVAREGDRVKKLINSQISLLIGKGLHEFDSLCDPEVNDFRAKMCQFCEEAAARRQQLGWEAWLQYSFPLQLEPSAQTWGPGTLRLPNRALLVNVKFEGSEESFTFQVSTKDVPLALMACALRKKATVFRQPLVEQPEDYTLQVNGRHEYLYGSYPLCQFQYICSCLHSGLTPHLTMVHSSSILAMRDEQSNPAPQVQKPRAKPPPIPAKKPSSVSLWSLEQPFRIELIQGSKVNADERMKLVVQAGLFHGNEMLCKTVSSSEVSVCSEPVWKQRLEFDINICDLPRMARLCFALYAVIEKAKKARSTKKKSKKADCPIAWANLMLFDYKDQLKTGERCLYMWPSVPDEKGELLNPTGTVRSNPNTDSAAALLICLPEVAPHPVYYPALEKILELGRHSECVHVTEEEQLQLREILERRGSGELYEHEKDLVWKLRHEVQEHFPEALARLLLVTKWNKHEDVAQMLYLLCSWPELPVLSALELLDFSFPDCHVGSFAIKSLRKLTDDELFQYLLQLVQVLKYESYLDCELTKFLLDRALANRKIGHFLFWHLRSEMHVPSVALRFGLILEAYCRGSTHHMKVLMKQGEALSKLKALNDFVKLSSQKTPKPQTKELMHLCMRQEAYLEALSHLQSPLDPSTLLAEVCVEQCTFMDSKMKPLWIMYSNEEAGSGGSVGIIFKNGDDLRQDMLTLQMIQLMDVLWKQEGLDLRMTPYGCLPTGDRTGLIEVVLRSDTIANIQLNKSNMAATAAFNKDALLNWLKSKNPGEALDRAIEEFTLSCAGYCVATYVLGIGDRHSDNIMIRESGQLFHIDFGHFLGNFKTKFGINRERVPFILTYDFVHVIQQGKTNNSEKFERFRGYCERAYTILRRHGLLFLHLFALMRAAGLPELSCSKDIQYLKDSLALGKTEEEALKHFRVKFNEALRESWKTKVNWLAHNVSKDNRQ
Chain of PI3Kδ (p110δ/p85α) Recombinant Human Protein (P27986 whole entry partner): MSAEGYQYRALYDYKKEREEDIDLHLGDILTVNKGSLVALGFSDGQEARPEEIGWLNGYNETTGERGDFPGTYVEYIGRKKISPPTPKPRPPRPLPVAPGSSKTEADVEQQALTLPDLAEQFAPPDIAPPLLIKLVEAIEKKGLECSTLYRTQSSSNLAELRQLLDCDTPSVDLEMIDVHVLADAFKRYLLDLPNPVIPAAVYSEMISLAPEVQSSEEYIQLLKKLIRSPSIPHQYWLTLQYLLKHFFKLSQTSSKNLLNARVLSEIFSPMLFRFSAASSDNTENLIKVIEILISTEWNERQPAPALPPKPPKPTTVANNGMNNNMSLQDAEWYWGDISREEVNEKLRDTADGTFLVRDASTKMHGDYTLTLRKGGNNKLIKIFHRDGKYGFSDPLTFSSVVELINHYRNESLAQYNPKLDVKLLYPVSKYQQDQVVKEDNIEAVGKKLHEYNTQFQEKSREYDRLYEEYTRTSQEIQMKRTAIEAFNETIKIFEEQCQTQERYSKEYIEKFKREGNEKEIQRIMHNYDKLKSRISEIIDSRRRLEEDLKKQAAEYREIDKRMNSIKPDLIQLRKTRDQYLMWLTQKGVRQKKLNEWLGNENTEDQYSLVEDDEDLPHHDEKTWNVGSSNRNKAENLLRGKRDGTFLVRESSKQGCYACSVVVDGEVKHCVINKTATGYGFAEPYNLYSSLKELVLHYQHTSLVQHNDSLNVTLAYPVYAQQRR
Method in brief: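 Kinase reaction run at room temperature in 20 mM MOPS pH 6.7, 10 mM MgCl2, 5 mM DTT, 0.03% CHAPS with 20 μM PIP2, 2 μM ATP plus [γ-33P]ATP, 3.4 nM enzyme, 2% DMSO; 120 min. Quenched with WGA SPA beads/EDTA, counted by scintillation; IC50 from % solvent-control activity vs log concentration.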

Row | IC50 [1] [nM] | IC50 [2] [nM] | IC50 [3] [nM] | Structure (SMILES)
1 | 100 to 500 | < 100 | 100 to 500 | Cc1ccc(S(=O)(=O)NC23CCC(c4cnco4)(CC2)OC3)cc1-c1cnc2c(N)ncnn12 [Example 440, 3-(4-Aminoimidazo[1,2-f][1,2,4]triazin-7-yl)-4-methyl-N-(1-(oxazol-5-yl)-2-oxabicyclo[2.2.2]octan-4-yl)benzenesulfonamide trifluoroacetate salt]
2 | 100 to 500 | < 100 | 100 to 500 | Cc1ccc(S(=O)(=O)NC23CCC(C(C)(C)O)(CC2)OC3)cc1-c1cnc2c(N)nc(C(F)(F)F)cn12 [Example 441, 3-(8-Amino-6-(trifluoromethyl)imidazo[1,2-a]pyrazin-3-yl)-N-(1-(2-hydroxypropan-2-yl)-2-oxabicyclo[2.2.2]octan-4-yl)-4-methylbenzenesulfonamide trifluoroacetate salt]
3 | 100 to 500 | < 100 | 500 to 2000 | Cc1ccc(S(=O)(=O)NC23CCC(O)(CC2)C3)cc1-c1cnc2c(N)ncnn12 [Example 442, 3-(4-Aminoimidazo[1,2-f][1,2,4]triazin-7-yl)-N-((1s,4s)-4-hydroxybicyclo[2.2.1]heptan-1-yl)-4-methylbenzenesulfonamide trifluoroacetate salt]
4 | 100 to 500 | < 100 | < 100 | Cc1nc(N)c2ncc(-c3cc(S(=O)(=O)NC45CCC(O)(CC4)C5)ccc3C)n2n1 [Example 443, 3-(4-Amino-2-methylimidazo[1,2-f][1,2,4]triazin-7-yl)-N-(4-hydroxybicyclo[2.2.1]heptan-1-yl)-4-methylbenzenesulfonamide trifluoroacetate salt]
5 | 100 to 500 | < 100 | < 100 | Cc1ccc(S(=O)(=O)NC23CCC(O)(CC2)C3)cc1-c1cnc2c(N)nc(C(F)(F)F)cn12 [Example 444, 3-(8-Amino-6-(trifluoromethyl)imidazo[1,2-a]pyrazin-3-yl)-N-(4-hydroxybicyclo[2.2.1]heptan-1-yl)-4-methylbenzenesulfonamide trifluoroacetate salt]
6 | 100 to 500 | < 100 | 100 to 500 | CNC(=O)c1cn2c(-c3cc(S(=O)(=O)NCC4CC(F)(F)C4)ccc3C)cnc2c(N)n1 [Example 445, 8-Amino-3-(5-(N-((3,3-difluorocyclobutyl)methyl)sulfamoyl)-2-methylphenyl)-N-methylimidazo[1,2-a]pyrazine-6-carboxamide trifluoroacetate salt]
7 | 100 to 500 | < 100 | 100 to 500 | Cc1ccc(S(=O)(=O)NCC2CC(F)(F)C2)cc1-c1cnc2c(N)nc(C(=O)NC3CCC3)cn12 [Example 446, 8-amino-N-cyclobutyl-3-(5-(N-((3,3-difluorocyclobutyl)methyl)sulfamoyl)-2-methylphenyl)imidazo[1,2-a]pyrazine-6-carboxamide trifluoroacetate salt]
8 | 500 to 1000 | < 100 | 500 to 2000 | CNC(=O)c1cn2c(-c3cc(S(=O)(=O)NC4CC(F)(F)C4)ccc3C)cnc2c(N)n1 [Example 447, 8-Amino-3-(5-(N-(3,3-difluorocyclobutyl)sulfamoyl)-2-methylphenyl)-N-methylimidazo[1,2-a]pyrazine-6-carboxamide trifluoroacetate salt]
9 | 100 to 500 | < 100 | 500 to 2000 | Cc1ccc(S(=O)(=O)NC2CC(F)(F)C2)cc1-c1cnc2c(N)nc(C(=O)NC3CCC3)cn12 [Example 448, 8-amino-N-cyclobutyl-3-(5-(N-(3,3-difluorocyclobutyl)sulfamoyl)-2-methylphenyl)imidazo[1,2-a]pyrazine-6-carboxamide trifluoroacetate salt]
10 | > 1000 | < 100 | 100 to 500 | CNC(=O)c1cn2c(-c3cc(S(=O)(=O)N[C@H]4CC[C@H](CC#N)OC4)ccc3C)cnc2c(N)n1 [Example 449, 8-Amino-3-(5-(N-((3S,6R)-6-(cyanomethyl)tetrahydro-2H-pyran-3-yl)sulfamoyl)-2-methylphenyl)-N-methylimidazo[1,2-a]pyrazine-6-carboxamide trifluoroacetate salt]
11 | 500 to 1000 | < 100 | 100 to 500 | Cc1ccc(S(=O)(=O)N[C@H]2CC[C@H](CC#N)OC2)cc1-c1cnc2c(N)nc(C(=O)NC3CCC3)cn12 [Example 450, 8-amino-3-(5-(N-((3S,6R)-6-(cyanomethyl)tetrahydro-2H-pyran-3-yl)sulfamoyl)-2-methylphenyl)-N-cyclobutylimidazo[1,2-a]pyrazine-6-carboxamide trifluoroacetate salt]
12 | 500 to 1000 | < 100 | 100 to 500 | Cc1ccc(S(=O)(=O)N[C@H]2CC[C@H](CC#N)OC2)cc1-c1cnc2c(N)nc(C(=O)NC3CC(F)(F)C3)cn12 [Example 451, 8-amino-3-(5-(N-((3S,6R)-6-(cyanomethyl)tetrahydro-2H-pyran-3-yl)sulfamoyl)-2-methylphenyl)-N-(3,3-difluorocyclobutyl)imidazo[1,2-a]pyrazine-6-carboxamide trifluoroacetate salt]
13 | 100 to 500 | < 100 | 100 to 500 | Cc1ccc(S(=O)(=O)N[C@H]2CC[C@](C)(O)CC2)cc1-c1cnc2c(N)ncnn12 [Example 463, 3-(4-Aminoimidazo[2,1-f][1,2,4]triazin-7-yl)-N-((1r,4r)-4-hydroxy-4-methylcyclohexyl)-4-methylbenzenesulfonamide]
14 | < 100 | < 100 | < 100 | Cc1ccc(S(=O)(=O)N2CCC[C@@H](N)C2)cc1-c1cnc2c(N)nc(C(F)(F)F)cn12 [Example 464, (R)-3-(5-((3-Aminopiperidin-1-yl)sulfonyl)-2-methylphenyl)-6-(trifluoromethyl)imidazo[1,2-a]pyrazin-8-amine tris(2,2,2-trifluoroacetate)]
15 | 100 to 500 | < 100 | 500 to 2000 | Cc1cn2c(-c3cc(S(=O)(=O)N[C@@H]4CC[C@@H](C(C)(C)O)OC4)c(C)cc3C)cnc2c(N)n1 [Example 465, 5-(8-Amino-6-methylimidazo[1,2-a]pyrazin-3-yl)-N-((3R,6S)-6-(2-hydroxypropan-2-yl)tetrahydro-2H-pyran-3-yl)-2,4-dimethylbenzenesulfonamide]
16 | < 100 | < 100 | < 100 | Cc1c(F)cc(S(=O)(=O)N[C@H]2CC[C@H](CC#N)OC2)cc1-c1cnc2c(N)nc(C(F)(F)F)nn12 [Example 466, 3-(4-Amino-2-(trifluoromethyl)imidazo[2,1-f][1,2,4]triazin-7-yl)-N-((3S,6R)-6-(cyanomethyl)tetrahydro-2H-pyran-3-yl)-5-fluoro-4-methylbenzenesulfonamide]
17 | < 100 | < 100 | 100 to 500 | Cc1ccc(S(=O)(=O)N[C@H]2CC[C@H](CF)OC2)cc1-c1cnc2c(N)ncnn12 [Example 467, 3-(4-Aminoimidazo[2,1-f][1,2,4]triazin-7-yl)-N-((3S,6R)-6-(fluoromethyl)tetrahydro-2H-pyran-3-yl)-4-methylbenzenesulfonamide]
18 | 100 to 500 | < 100 | 100 to 500 | Cc1nc(N)c2ncc(-c3cc(S(=O)(=O)NCC(C)(C)O)cc(F)c3C)n2n1 [Example 468, 3-(4-Amino-2-methylimidazo[2,1-f][1,2,4]triazin-7-yl)-5-fluoro-N-(2-hydroxy-2-methylpropyl)-4-methylbenzenesulfonamide]
19 | 100 to 500 | < 100 | 100 to 500 | [2H]C([2H])([2H])c1nc(N)c2ncc(-c3cc(S(=O)(=O)NCC(C)(C)O)cc(F)c3C([2H])([2H])[2H])n2n1 [Example 469, 3-(4-Amino-2-(methyl-d3)imidazo[2,1-f][1,2,4]triazin-7-yl)-5-fluoro-N-(2-hydroxy-2-methylpropyl)-4-(methyl-d3)benzenesulfonamide]
20 | > 1000 | 100 to 500 | 500 to 2000 | Cc1ccc(NS(=O)(=O)C2CCOCC2)cc1-c1cnc2c(N)nccn12 [Example 471, N-(3-(8-Aminoimidazo[1,2-a]pyrazin-3-yl)-4-methylphenyl)tetrahydro-2H-pyran-4-sulfonamide]
21 | 100 to 500 | < 100 | 100 to 500 | Cc1ccc(S(=O)(=O)N2CCCC(CO)C2)cc1-c1cnc2c(N)nc(C(F)(F)F)cn12 (stereo not drawn) [Example 472, (1-((3-(8-Amino-6-(trifluoromethyl)imidazo[1,2-a]pyrazin-3-yl)-4-methylphenyl)sulfonyl)piperidin-3-yl)methanol]
22 | 100 to 500 | < 100 | 100 to 500 | Cc1ccc(S(C)(=O)=O)cc1-c1cnc2c(N)nc(-c3cccc(CC#N)c3)cn12 [Example 474, 2-(3-(8-Amino-3-(2-methyl-5-(methylsulfonyl)phenyl)imidazo[1,2-a]pyrazin-6-yl)phenyl)acetonitrile trifluoroacetate]
23 | 500 to 1000 | < 100 | 100 to 500 | Cc1ccc(S(C)(=O)=O)cc1-c1cnc2c(N)nc(-c3ccc(C(F)F)cc3)cn12 [Example 475, 6-(4-(Difluoromethyl)phenyl)-3-(2-methyl-5-(methylsulfonyl)phenyl)imidazo[1,2-a]pyrazin-8-amine trifluoroacetate]
